The values below are quoted from earlier work in patent US7981858B1, “Methods of using zinc containing compounds to improve ocular health” (Alcon, Inc., priority 2004, dated 2011).

For series [1] the following is noted: about 200 mg dosage of zinc per day.
The conditions of series [2]: 80 mg of zinc, versus placebo.

On to `[Zn]` [zinc], for which the tolerability entry in series [1] was “well tolerated”. Also, the side effects entry in series [1] (anemia attributable to copper deficiency) was “potential side effects such as anemia”. Further, in series [2], the “retarding macular degeneration changes” value is reported as “significantly better than placebo”.
